These results are taken from patent US5420289A, “Substituted indole-, indene-, pyranoindole- and tetrahydrocarbazole-alkanoic acid derivatives as inhibitors of PLA2 and lipoxygenase” (American Home Products Corporation, priority 1993, dated 1995).

Assay [1] has as its system cyclooxygenase pathway (6-keto-PGF1a). Nature of the assay: in vivo murine zymosan peritonitis assay, 6-keto-PGF1a (Example 76). Further details: species or system mouse (male CD-1). The following applies: 50 mg/kg p.o.; negative values denote potentiation. As to the method:
(§1) The compounds of the invention are evaluated for their ability to inhibit the lipoxygenase and/or cyclooxygenase pathways of arachidonic acid metabolism in the in vivo murine zymosan peritonitis assay.
(§2) This assay is carried out as follows:
(§3) Male CD-1 mice (8 weeks old) are placed in plastic boxes in groups of six. Animals are injected with 1 mL i.p. of either 1% zymosan in pyrogen free 0.9% saline or saline (unstimulated control). Compounds are dosed orally 1 hour prior to zymosan injection. Twenty minutes after zymosan injection, the mice are asphyxiated by CO2 inhalation and tile peritoneal cavity is lavaged with 2 mL ice cold Hanks Balanced Salt Solution (HBSS) without CaCl2, MgSO4 ·7H2 O and MgCl2 ·6H2 O. Peritoneal lavage fluid from each mouse is removed by syringe and placed in 5 mL plastic test tubes put on ice and volume is noted. […]
(§4) The total metabolite level in lavage fluid/mouse is calculated and the significance is determined by a one-way analysis of variance with LSD comparisons to control (p<0.05). Drug effects are expressed as a percent change from control values.

Assay [2] has as its system synthesis of LTB4 by rat glycogen-elicited polymorphonuclear leukocytes (PMN). Description: inhibition of LTB4 synthesis by rat glycogen-elicited PMN (Example 72). The conditions noted are these: Leukocyte, at 10 mM, negative number denotes potentiation. Type of assay: cell-based, rat (female Wistar). Summed up:
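Peritoneal PMNs from female Wistar rats 18-24 h after i.p. glycogen, 2.0×10^7 cells/mL in HBSS with Ca/Mg and 10 mM L-cysteine; compound preincubated 10 min at 37° C, then A23187 […] added for 10 min. Supernatant [3H]-LTB4 quantified by radio-HPLC versus drug-free stimulated cells; percent inhibition or IC50.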

Assay [3] relates to carrageenan paw edema. Description: rat carrageenan paw edema assay (Example 78). The following applies: 50 mg/kg peroral; 3 hours after carrageenan. Type of assay: in vivo, rat (male Sprague-Dawley). Here is the method:
The compounds of the invention are further tested in the rat carrageenan paw edema assay to determine their ability to inhibit the acute inflammatory response.
This assay is carried out as follows: 140-180 g Male Sprague-Dawley rats, in groups of 6 animals are injected subcutaneously in the right paw with 0.1 mL of 1% carrageenan at zero time. Mercury plethysmographic readings (mL) of the paw are made at zero time and 3 hours later. Test compounds are suspended or dissolved in 0.5% methylcellulose and given perorally 1 hour prior to carrageenan administration.
The increase in paw volume (edema in mL) produced by the carrageenan is measured. Paw edema is calculated (3 hour volume minus zero time volume), and percent inhibition of edema is determined. Unpaired Student's t-test is used to determine statistical significance.
For orientation: In the carrageenan paw model, swelling and tenderness develop within hours.

Assay [4] has as its system cyclooxygenase (PGE2 synthesis) in rat polymorphonuclear leukocytes (PMN). Description: inhibition of PGE2 synthesis (cyclooxygenase) by rat glycogen-elicited PMN (Example 73). Type of assay: cell-based, rat (female Wistar). The conditions noted are these: Leukocyte, at 10 mM, * (negative) denotes a potentiation, read-out: % Inhibition (PGE2 synthesis). Summed up:
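Glycogen-elicited peritoneal PMNs from female Wistar rats, 2.0×10^7 cells/mL in HBSS with Ca/Mg and 10 mM L-cysteine, preincubated with drug 10 min at 37° C. Stimulated 10 min with A23187 plus [3H]-AA and unlabeled AA (stocks 1 mM); supernatant [3H]-PGE2 measured by reverse-phase HPLC co-chromatographed with reference standard.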

In assay [5] the test system is lipoxygenase pathway (LTC4). Nature of the assay: in vivo murine zymosan peritonitis assay, LTC4 (Example 76). Further details: species or system mouse (male CD-1). The following applies: 50 mg/kg p.o.; negative values denote potentiation. As to the method: as §1, §2, §3, §4

For orientation: inhibition means the drop in the measured response relative to a control, in per cent. Regarding `CC1(CC(=O)O)OCCc2c1[nH]c1ccc(OCc3ccc4ccccc4n3)cc21` (stereo not shown) [Example 10, 1-Methyl-1,3,4,9-tetrahydro-6-(2-quinolinylmethoxy)pyrano[3.4-b]indole-1-acetic acid], in assay [1], the “% Inhibition 6-keto-PGF” value is listed as -5%. Besides, the inhibition at 10000 µM in assay [2] was 91%; in assay [4] it was -41%. The “% Inhibition 50 mg/kg (peroral)” value in assay [3] was determined as 48%. The “% Inhibition LTC4” value in assay [5] is 11%.

As to `CCC1(CC(=O)O)CCCc2c1[nH]c1ccc(OCc3ccc4ccccc4n3)cc21` (stereo not shown) [Example 11, 1-Ethyl-2,3,4,9-tetrahydro-6-(2-quinolinylmethoxy)-1H-carbazole-1-acetic acid], the “% Inhibition 6-keto-PGF” value in assay [1] was 47%. Besides, the inhibition at 10000 µM in assay [2] came out at 95%; in assay [4], 80%. For the same compound, the “% Inhibition 50 mg/kg (peroral)” value in assay [3] was “+1%”. The “% Inhibition LTC4” value in assay [5] is -49%.
